Tests used:
TLR7 = target: T1, TLR7 (Homo sapiens, UniProt Q9NYK1); assay: TLR7 antagonist screening, NF-κB-inducible SEAP reporter in HEK293 cells; format: cell-based; conditions: for Average % Inhibition at TLR7: 10 μM, stimulated with CL097 at 1 μg/ml
T1 construct: expressed in transfected cells; host or cells: HEK293
T1 sequence (Q9NYK1 27-1049): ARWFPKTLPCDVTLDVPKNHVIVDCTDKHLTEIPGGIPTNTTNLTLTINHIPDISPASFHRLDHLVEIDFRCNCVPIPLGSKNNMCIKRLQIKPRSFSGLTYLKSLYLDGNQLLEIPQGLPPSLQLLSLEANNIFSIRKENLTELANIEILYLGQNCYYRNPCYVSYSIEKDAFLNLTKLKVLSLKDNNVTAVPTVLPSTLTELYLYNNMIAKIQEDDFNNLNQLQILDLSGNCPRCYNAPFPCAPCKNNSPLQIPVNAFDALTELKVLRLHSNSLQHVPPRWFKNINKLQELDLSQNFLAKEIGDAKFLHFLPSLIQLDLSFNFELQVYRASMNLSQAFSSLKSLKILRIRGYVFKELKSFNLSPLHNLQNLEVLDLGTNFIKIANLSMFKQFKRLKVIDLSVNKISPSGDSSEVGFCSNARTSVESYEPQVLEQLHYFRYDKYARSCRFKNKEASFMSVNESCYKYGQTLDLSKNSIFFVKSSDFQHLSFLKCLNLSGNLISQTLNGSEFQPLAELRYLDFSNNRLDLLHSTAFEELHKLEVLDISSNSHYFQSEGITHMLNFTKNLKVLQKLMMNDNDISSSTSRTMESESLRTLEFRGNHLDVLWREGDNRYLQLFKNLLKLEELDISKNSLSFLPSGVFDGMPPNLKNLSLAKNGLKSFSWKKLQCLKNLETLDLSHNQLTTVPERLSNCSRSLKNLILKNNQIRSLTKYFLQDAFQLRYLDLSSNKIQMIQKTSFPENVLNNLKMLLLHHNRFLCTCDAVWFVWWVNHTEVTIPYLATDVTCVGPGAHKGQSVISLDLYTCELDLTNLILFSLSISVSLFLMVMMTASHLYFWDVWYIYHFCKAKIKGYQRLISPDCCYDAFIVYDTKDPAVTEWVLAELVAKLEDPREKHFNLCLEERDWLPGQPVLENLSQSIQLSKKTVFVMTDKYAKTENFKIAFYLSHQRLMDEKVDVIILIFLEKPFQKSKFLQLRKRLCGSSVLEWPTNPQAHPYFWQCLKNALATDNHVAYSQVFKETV
Experimental: (§1) Stimulation of TLRs 2, 3, 4, 5, 7, 8, and 9 was determined by assessing activation of the transcription factor NF-κB in HEK293 cells that were engineered to express the corresponding receptors. Assessment of TLR stimulation was based on the use of an NF-κB-inducible secreted alkaline phosphatase (SEAP) reporter system in which the SEAP reporter was under the control of a promoter inducible by NF-κB. Thus, the degree of activation of TLRs can be indirectly quantified spectrophotometrically by measuring the amount of the SEAP reporter that is produced.
(§2) The appropriate TLR-expressing cells were plated in Growth Medium in a 96-well plate (25,000-50,000 cells/well). The cells were stimulated with the appropriate positive control ligand or no ligand was added (negative control). The positive control ligands were: HKLM was used to stimulate TLR2; poly(I:C) was used to stimulate TLR3; LPS was used to stimulate TLR4; Flagellin was used to stimulate TLR5; CL097 was used to stimulate TLR7; CL075 was used to stimulate TLR8; CpG oligodeoxynucleotide (ODN) 2006 was used to stimulate TLR9. To test whether (+)-morphinans could block that activation of the TLR, the cells were pretreated with an antagonist for 30 minutes prior to addition of the positive control ligand. […] After a 16-20 hr incubation period at 37° C. in a CO2 incubator, 20 μL of the cell culture supernatant was added to 180 μL of QUANTI-Blue™ Media (InvivoGen, San Diego, Calif.), and the resulting solutions were incubated at 37° C. for an additional 1-3 hours according to the manufacturer's instructions. The OD's of the samples were then read at 650 nm on a Beckman Coulter AD 340C Absorbance Detector.

TLR2 = target: T2, TLR2 (Homo sapiens, UniProt O60603); assay: TLR2 antagonist screening, NF-κB-inducible SEAP reporter in HEK293 cells; format: cell-based; conditions: for Average % Inhibition at TLR2: 10 μM, stimulated with HKLM at 10^8 cell/ml
T2 construct: expressed in transfected cells; host or cells: HEK293
T2 sequence (O60603 21-784, species assumed): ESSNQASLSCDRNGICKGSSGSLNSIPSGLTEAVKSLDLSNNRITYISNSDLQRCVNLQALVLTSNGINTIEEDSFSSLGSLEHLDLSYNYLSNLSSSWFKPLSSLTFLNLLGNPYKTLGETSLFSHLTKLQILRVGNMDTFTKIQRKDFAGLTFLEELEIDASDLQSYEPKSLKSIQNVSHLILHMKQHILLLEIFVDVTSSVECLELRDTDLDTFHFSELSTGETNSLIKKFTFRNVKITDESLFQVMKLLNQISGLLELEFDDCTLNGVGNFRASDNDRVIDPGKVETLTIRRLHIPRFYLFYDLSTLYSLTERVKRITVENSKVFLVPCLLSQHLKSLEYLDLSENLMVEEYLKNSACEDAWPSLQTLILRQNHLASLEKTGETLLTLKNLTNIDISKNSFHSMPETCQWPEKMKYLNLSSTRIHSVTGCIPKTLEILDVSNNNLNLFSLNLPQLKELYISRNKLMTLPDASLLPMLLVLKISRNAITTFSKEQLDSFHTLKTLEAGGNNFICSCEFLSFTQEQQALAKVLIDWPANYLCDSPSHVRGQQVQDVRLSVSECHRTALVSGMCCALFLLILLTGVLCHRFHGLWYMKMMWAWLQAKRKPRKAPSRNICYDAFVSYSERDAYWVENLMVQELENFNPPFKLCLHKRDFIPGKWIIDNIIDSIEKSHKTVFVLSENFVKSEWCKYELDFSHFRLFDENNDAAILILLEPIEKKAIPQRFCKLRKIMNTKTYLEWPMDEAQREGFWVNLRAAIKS
Experimental: as §1
as §2, with “ligand. For this, 20 μL of the stock test compound solution (100 μM in H2O) was added to give a total volume of 200 μL.” for “ligand.”

| SMILES | Average % Inhibition at TLR7 (TLR7) | Average % Inhibition at TLR2 (TLR2) | inhibition at 10 µM (TLR7; HEK293, stimulated with CL097 at 1 μg/ml) | inhibition at 10 µM (TLR2; HEK293, stimulated with HKLM at 10^8 cell/ml) |
| --- | --- | --- | --- | --- |
| C=CCN1CC[C@]23c4c5ccc(O)c4O[C@H]2C(=O)CC[C@]3(O)[C@H]1C5 [(+)-Naloxone, (+)-naloxone] | 18% | 24% | – | – |
| COc1ccc2c(c1O)[C@@]13CCN(C)[C@@H](C2)[C@H]1CC(OC)C(=O)C3 (stereo partly drawn) [Dihydrosinomenine, dihydrosinomenine] | 11% | 27% | – | – |
| COC1=C[C@@H]2[C@@H]3Cc4ccc(OC)c(O)c4[C@]2(CCN3C)CC1=O [Sinomenine, sinomenine] | – | – | 20% | 30% |
